Entries after “also recorded” stand apart in the source; their conditions may differ.
Key:
c-jun = experiment: Northern analysis of c-jun RNA in melanocytes exposed to UV-B; assay type: cell-based, human; conditions: for decrease of C-jun induction versus irradiated melanocytes in complete medium (TPA and IBMX) / RNA levels in the absence of the factor: FIG. 9; for decrease of C-jun induction versus irradiated melanocytes in complete medium (TPA and IBMX): medium without the factor (TPA 10 ng/ml or IBMX 0.1 mM) 24 hours, 100 mJ/cm^2 UVB, 1 hour after irradiation; for RNA levels in the absence of the factor: melanocytes not exposed to UVB
Description: Ultra-violet (“UV”) radiation can cause severe damage to cells, including genetic mutations, the promotion of cancer, and other adverse conditions. The potentially harmful effects for UV radiation for humans are mainly due to the UVB spectrum (ie, radiation having a wavelength of between 290 and 320 nanometers) (See: […], Soler N A Staff J S and Mihm M C Jr: “The human sunburn reaction: histologic and biochemical studies” J, Am. […] Another form of UV radiation is called “UVC”. UVC radiation in sunlight typically has a wavelength of the order of 254 nanometers. It is not as biologically relevant as UVB radiation however, because th UVC radiation in sunlight is strongly absorbed by the earth's ozone layer. accordingly, in the present study, we investigated the effects of UVB irradiation by melanocytes, and the changes to those effects by treating those cells with carotenoids. UVC wavelengths were blocked out of the experiments as the cells were incubated in plastic vessels. […] Wavelengths shorter than 280 nm wee cut off by keeping lids on tissue culture dishes. […] Total RNA was isolated by detergent lysis followed by phenol-chloroform extraction and ethanol precipitation. 15 micrograms of RNA was size-fractionated on denaturing formaldehyde/agarose gels and transferred to nylon filters by capillary blotting. […] After hybridization, filters were washed to a stringency of 0.5-0.1X SSC at 60° C. and autoradiographed at -80° C. for three to ten days using Fuji film. Autoradiographs are quantitated by densitometry using the GS-365 software (Hoefer Scientific). […] The c-fos probe was a 1.8 kb Xbo 1/Eco R I fragment from the plasmid BK 28 (Verma, 1988). The 185 probe was isolated by an EcoRI digest and isolation of the 5.6 kb fragment from the plasmid pB (Gonzalez, 1988). […] The 0.05 hour time indicates cells were harvested within 3 minutes following UV-B exposure. A “control” group received precisely the same treatment as the “treated” group, with the exception of being treated with beta-carotene.

normal human melanocytes [1] = experiment: DNA synthesis by tritiated thymidine incorporation in normal human melanocytes; assay type: cell-based; conditions: for effect on DNA synthesis (percent tritiated thymidine incorporation): no UV
Procedure: FIGS. 1 and 5 refer to “Percent Tritiated Thymidine Incorporation” which is a measure of DNA synthesis activity.
(§1) Human neonatal foreskins were placed in 0.25% trypsin at 4° C. overnight. Following this incubation, the tissue was scraped to recover the melanocytes. The melanocytes were cultured in MCDB 151 (Sigma) medium containing 2% fetal calf serum, 0.3% bovine pituitary extract (Clonetics Corp.), 10 nanograms/ml TPA, 2 mM CaCl2, 5 micrograms/ml insulin and 0.1 mM IBMX (Sigma).
(§2) Cells were harvested with 0.25% trypsin and counted on a Coulter Counter (Coulter Instruments). Viability was determined by trypan blue exclusion. DNA synthesis was measured by labelling with (methyl-^3H)-thymidine (2.5 mCi/ml, 20 Ci/mmol, DuPont-New England Nuclear) added to the medium during the last 4 hours of incubation. Melanocytes were harvested using a Ph.D. cell harvester (Cambridge Research Inc.). the amount of radioactivity incorporated was determined by liquid scintillation counting (LS5000TD. Beckman Instruments).
(§3) Normal human melanocytes were seeded into the appropriate vessel (6 well plate, 96 well plate, 75 cm or 175 cm flask) and allowed to grow to 50-60% confluency. […] The 0.05 hour time indicates cells were harvested within 3 minutes following UV-B exposure.

normal human melanocytes [2] = conditions: FIG. 2; 500 mJ/cm^2 UV-B; up to 24 hours after irradiation
Procedure: as §1, §2, §3

NF Kappa B = experiment: Gel mobility shift assay of NF Kappa B DNA binding activity in nuclear extracts of UV-B irradiated melanocytes; assay type: cell-based, human
Procedure: In summary, gel mobility shift assay using a NF Kappa B consensus sequence was performed to determine DNA binding activity of nuclear extracts from four normal Caucasian melanocyte (NCM) lines.
Cells were grown to approximately 50-60% confluency and treated as described in the experimental protocol described in section (i) below. The cells were allowed to swell in hypotonic buffer (10 mM HEPES, pH 7.8, 0.1 mM EDTA, 10 mM KCC, 1 mM DTT. PMSF for 15 minutes on ice). Cytosolic protein fraction was obtained after the addition of Nonider P-40 to a final concentration of 0.5% and separation from the nuclei by centrifugation (500×g. for 5 minutes). Nuclear proteins were extracted from the remaining pellet by dialysis with hypertonic buffer ([…], pH 7.9, 350 mM NaCl, 1 Mm DTT, 1 mM PMSF) for 2 hours at 10° C. Isolated nuclear protein was frozen and stored at −80° C. Quantitation was calculated from optical density readings of 230, 260 and 320 wavelengths.
Five microgram samples of each extract were incubated with 10,000 cpm of a ^32p-labelled consensus oligonucleotide of NF Kappa B. Following a 1 hour incubation, samples were electrophoresed in a low ionic strength polyacrylamide gel. Quantitation of protein; DNA complexes was accomplished by densitometry.
as §3

c-fos = experiment: Northern analysis of c-fos RNA in melanocytes exposed to UV-B; assay type: cell-based, human
Procedure: as §3

[3] = FIG. 6, 1 ug/ml for 24 hours, then 100 or 500 mJ/cm^2 UV-B, four melanocyte lines

SMILES	decrease of C-jun induction versus irradiated melanocytes in complete medium (TPA and IBMX) (c-jun)	RNA levels in the absence of the factor (c-jun)	effect on DNA synthesis (percent tritiated thymidine incorporation) (normal human melanocytes [1]; FIG. 1, highest beta-carotene dose, 24 hours incubation)	effect on DNA synthesis (percent tritiated thymidine incorporation) (normal human melanocytes [1]; FIG. 1, lower beta-carotene doses, 24 hours incubation)	effect on DNA synthesis at the chosen pre-treatment dose (normal human melanocytes [1]; FIG. 1, pre-treatment dose, 1.0 microgram/ml or 10 μg/ml, 24 hours incubation)	effect of pre-treatment on DNA synthesis after UV-B (normal human melanocytes [1]; FIG. 4, 4 hours after irradiation, 400 mJ/cm^2 of UV-B)	effect of pre-treatment on DNA synthesis (tritiated thymidine incorporation) after UV-B (normal human melanocytes [1]; FIG. 4, 24 hours following 400 mJ/cm^2 of UV-B)	persistence of the viability increase over the time course (normal human melanocytes [2])	effect on NF kappa B DNA binding activity (NF Kappa B; FIG. 7, 100 mJ/cm^2 UV-B)	inhibition at 1 µg/mL (NF Kappa B; Homo sapiens, Melanocyte, light or radiation study, FIG. 8, 500 mJ/cm^2 UV-B, first hour following irradiation, 1.0 ug/ml pre-treatment 24 hours) [%]	protective effect of pre-treatment (NF Kappa B complex) (NF Kappa B; one hour following UVB irradiation at 500 mJ/cm^2, p value less than 0.05, Student's t-test)	effect on induction of c-fos by UV-B (c-fos; FIG. 3, 500 mJ/cm^2 UV-B, beta-carotene pre-treatment)	effect on UVB-induced C-fos expression (c-fos; [3])	effect on induction of c-jun by UV-B (c-jun; FIG. 3, 24 hours following 500 mJ/cm^2 UV-B irradiation)	increase of c-jun expression by beta-carotene (c-jun; FIG. 3, four hours following 500 mJ/cm^2 UV-B irradiation) [fold]	effect on UVB-induced C-jun expression (c-jun; [3])
CC(C)Cn1c(=O)n(C)c(=O)c2[nH]cnc21 [IBMX, 3-Isobutyl 1-Methyl Xanthine]	approximately 50%	unaffected														
CC1=C(/C=C/C(C)=C/C=C/C(C)=C/C=C/C=C(C)/C=C/C=C(C)/C=C/C2=C(C)CCCC2(C)C)C(C)(C)CCC1 [beta-carotene]			largely inhibited	little or no effect	minimal effect	not seen	increased	remained for the duration of the time course	slightly decreased; also recorded: moderate effect	> 50	statistically significant protective effect	essentially blocked	did not alter	completely blocked	11.1	only a slight effect
CCCCCCCCCCCCCC(=O)O[C@@H]1[C@@H](C)[C@@]2(O)[C@@H](C=C(CO)C[C@]3(O)C(=O)C(C)=C[C@@H]23)[C@H]2C(C)(C)[C@]12OC(C)=O [TPA, O-Tetradecanoylphorbol 13-acetate]	approximately 50%	unaffected														

— patent publication US6428816B1, “Carotenoid agent for inhibiting the conversion of epithelial cells to tumors” (Cognis Australia Pty., Ltd., priority 1992, dated 2002)
